In CN114848615A, “和厚朴酚小分子自主装纳米粒及制备方法” (Tianjin University, priority 2022, dated 2022):

Test: SEM/TEM characterisation and appearance/distribution in water
Assay type: physicochemical
Conditions: in words

C=CCc1ccc(O)c(-c2ccc(O)c(CC=C)c2)c1 [HK, 和厚朴酚]
distribution/appearance in water: 形成浑浊的白色浆液
